# pKd: −log10 of the molar value.
# Target: Cannabinoid receptor 2 (Homo sapiens, UniProt P34972)
# Assay: Competition Binding Assay
# Experimental: To determine the affinity of CB2R-specific ligands, we used a simple competition kinetic binding assay. This approach involves the simultaneous addition of both fluorescent ligand and competitor to the CB2R preparation. 62.5 nM 8-SiR, concentration which avoid ligand depletion in this assay volume, were added simultaneously with increasing concentrations of the unlabeled compound to CB2R cell membranes (4 μg per well) in 40 μL of assay buffer in a 384-well plate incubated at room temperature with orbital mixing. The degree of fluorescent ligand bound to the receptor was assessed at equilibrium by HTRF detection. Nonspecific binding was determined as the amount of HTRF signal detected in the presence of SR144528 (1 μM) and was subtracted from total binding, to calculate specific binding for construction of IC50 curves.
# Chain of Cannabinoid receptor 2 (P34972 whole entry): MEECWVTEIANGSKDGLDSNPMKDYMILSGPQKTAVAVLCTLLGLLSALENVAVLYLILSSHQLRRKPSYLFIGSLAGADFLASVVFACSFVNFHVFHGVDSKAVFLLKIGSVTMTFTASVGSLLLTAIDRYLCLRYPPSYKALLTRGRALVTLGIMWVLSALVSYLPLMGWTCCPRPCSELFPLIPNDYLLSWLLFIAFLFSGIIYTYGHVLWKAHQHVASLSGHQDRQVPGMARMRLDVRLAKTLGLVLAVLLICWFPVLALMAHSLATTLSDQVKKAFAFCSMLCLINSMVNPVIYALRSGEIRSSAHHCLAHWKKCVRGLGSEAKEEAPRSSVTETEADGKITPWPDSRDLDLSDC
row,Structure (SMILES),pKd
1,"CCN(CC)c1ccc2c(c1)OC(=O)C(/C=C/c1ccc(S(=O)(=O)[O-])c[n+]1CCCCCC(=O)NCCOCCN1CC(CNC(=O)C3=CC(S(=O)(=O)N4CC(C(=O)NCCCCCCC(=O)NCC5=C[C@H](c6c(OC)cc(C(C)(C)CCCCCCN=[N+]=[N-])cc6OC)[C@@H]6C[C@H]5C6(C)C)C=CC4=O)CC=C3)N=N1)C2 (some centres not stated) [US20250325711, Example 5]",7.23
2,"CCCCCCC(C)(C)c1cc(OC)c([C@H]2C=C(CNC(=O)CCCCCCNC(=O)c3ccc(=O)n(S(=O)(=O)c4cccc(C(=O)NCC5CN(CCOCCNc6ccc([N+](=O)[O-])c7nonc67)N=N5)c4)c3)[C@H]3C[C@@H]2C3(C)C)c(OC)c1 (some centres not stated) [US20250325711, Example 3]",7.62
3,"COc1cc(C(C)(C)CCCCCCN=[N+]=[N-])cc(OC)c1[C@H]1C=C(CNC(=O)CCCCNC(=O)c2ccc(=O)n(S(=O)(=O)c3cccc(C(=O)NCCC4CN(CCOCCNc5ccc([N+](=O)[O-])c6nonc56)N=N4)c3)c2)[C@H]2C[C@@H]1C2(C)C (some centres not stated) [US20250325711, Example 1]",8.04
4,"COc1cc(C(C)(C)CCCCCCN=[N+]=[N-])cc(OC)c1[C@H]1C=C(CNC(=O)CCCCCCNC(=O)c2ccc(=O)n(S(=O)(=O)c3cccc(C(=O)NCC4CN(CCOCCOCCOCCOCCNc5ccc([N+](=O)[O-])c6nonc56)N=N4)c3)c2)[C@H]2C[C@@H]1C2(C)C (some centres not stated) [US20250325711, Example 4]",8.35
5,"COc1cc(C(C)(C)CCCCCCN=[N+]=[N-])cc(OC)c1[C@H]1C=C(CNC(=O)CCCCCCNC(=O)c2ccc(=O)n(S(=O)(=O)c3cccc(C(=O)NCC4CN(CCOCCNc5ccc([N+](=O)[O-])c6nonc56)N=N4)c3)c2)[C@H]2C[C@@H]1C2(C)C (some centres not stated) [US20250325711, Example 2]",7.64
6,"COc1cc(C(C)(C)CCCCCCN=[N+]=[N-])cc(OC)c1[C@H]1C=C(CNC(=O)CCCCCCCCNC(=O)c2ccc(=O)n(S(=O)(=O)c3cccc(C(=O)NCC4CN(CCOCCNc5ccc([N+](=O)[O-])c6nonc56)N=N4)c3)c2)[C@H]2C[C@@H]1C2(C)C (some centres not stated) [US20250325711, Example 7]",8.05
7,"COc1cc(C(C)(C)CCCCCCN=[N+]=[N-])cc(OC)c1[C@H]1C=C(CNC(=O)CCCCCCNC(=O)c2ccc(S(=O)(=O)N(CC#N)C(=O)CCC3CN(CCOCCNc4ccc([N+](=O)[O-])c5nonc45)N=N3)cc2)[C@H]2C[C@@H]1C2(C)C (some centres not stated) [US20250325711, Example 11]",6.82

# Reference: BindingDB's records for patent US20250325711 (Hoffmann-La Roche, 2025)
